Test results as given in ChEMBL document CHEMBL1667853, “Design and synthesis of potent Gram-negative specific LpxC inhibitors” (Bioorg Med Chem Lett, 2011).
Values after ≈ are worked out from the molar mass of the structure shown.

Key:
[1] = target: T1, UDP-3-O-acyl-N-acetylglucosamine deacetylase (Escherichia coli K-12, UniProt P0A725); test: Inhibition of Escherichia coli LpxC
T1 sequence (P0A725 whole entry): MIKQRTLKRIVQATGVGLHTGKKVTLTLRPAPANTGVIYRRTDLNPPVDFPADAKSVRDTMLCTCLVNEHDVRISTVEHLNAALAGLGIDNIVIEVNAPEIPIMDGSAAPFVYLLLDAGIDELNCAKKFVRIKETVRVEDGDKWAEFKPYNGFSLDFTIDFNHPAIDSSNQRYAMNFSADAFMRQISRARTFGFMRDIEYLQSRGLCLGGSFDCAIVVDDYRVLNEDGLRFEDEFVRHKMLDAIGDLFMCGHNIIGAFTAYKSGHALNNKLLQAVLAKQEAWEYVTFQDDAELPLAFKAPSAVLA

[2] = test system: Escherichia coli; test: Antimicrobial activity against Escherichia coli ATCC 25922 by broth dilution assay; assay type: functional
[3] = test system: Escherichia coli; test: Antimicrobial activity against Escherichia coli HS294 by broth dilution assay; assay type: functional
[4] = test system: Pseudomonas aeruginosa; test: Antimicrobial activity against wild type Pseudomonas aeruginosa by broth dilution assay; assay type: functional
[5] = test system: Escherichia coli; test: Antimicrobial activity against multidrug-resistant Escherichia coli by broth dilution assay; assay type: functional
[6] = test system: Pseudomonas aeruginosa; test: Antimicrobial activity against multidrug-resistant Pseudomonas aeruginosa by broth dilution assay; assay type: functional
[7] = test system: Escherichia coli; test: Antimicrobial activity against wild type Escherichia coli by broth dilution assay; assay type: functional
[8] = test system: Klebsiella pneumoniae; test: Antimicrobial activity against wild type Klebsiella pneumoniae by broth dilution assay; assay type: functional
[9] = test system: Stenotrophomonas maltophilia; test: Antimicrobial activity against wild type Stenotrophomonas maltophilia by broth dilution assay; assay type: functional
[10] = test system: Enterobacter cloacae; test: Antimicrobial activity against ESBL producing Enterobacter cloacae by broth dilution assay; assay type: functional
[11] = test system: Klebsiella pneumoniae; test: Antimicrobial activity against ESBL producing Klebsiella pneumoniae by broth dilution assay; assay type: functional
[12] = test system: Escherichia coli; test: Antimicrobial activity against ESBL producing Escherichia coli by broth dilution assay; assay type: functional

Compound	IC50 [1]	MIC [2]	MIC [3]	other results
C[C@@H](O)[C@@H](NC(=O)N1CCN(c2ccc(-c3cncs3)cc2)CC1)C(=O)NO	12 nM	100 µg/mL (≈ 247 µM)	3.13 µg/mL (≈ 7.72 µM)	
C[C@@H](O)[C@@H](NC(=O)N1CCN(c2ccc(C#Cc3ccc(CN4CCOCC4)cc3)cc2)CC1)C(=O)NO	14 nM	6.25 µg/mL (≈ 12 µM)	1.56 µg/mL (≈ 2.99 µM)	
C[C@@H](O)[C@@H](NC(=O)N1CCN(c2ccc(C#Cc3ccc(CO)cc3)cc2)CC1)C(=O)NO	12 nM	12.5 µg/mL (≈ 27.6 µM)	0.4 µg/mL (≈ 0.884 µM)	
C[C@@H](O)[C@@H](NC(=O)NCc1ccc(C#Cc2ccccc2)cc1)C(=O)NO	201 nM	> 100 µg/mL	12.5 µg/mL (≈ 34 µM)	
C[C@@H](O)[C@@H](NC(=O)N1CCN(c2ccc(-c3ccccc3)cc2)CC1)C(=O)NO	5.6 nM	3.13 µg/mL (≈ 7.86 µM)	0.8 µg/mL (≈ 2.01 µM)	
C[C@@H](O)[C@H](C(=O)NO)N1Cc2cc(-c3ccccc3)ccc2C1=O	41000 nM			
C[C@@H](O)[C@H](C(=O)NO)N1Cc2cc(C#Cc3ccc(-c4ccccc4)cc3)ccc2C1=O	13 nM			
O=C(N[C@H](CO)[C@H](O)c1ccc([N+](=O)[O-])cc1)C(Cl)Cl [CHLORAMPHENICOL]				MIC [4]: 2 µg/mL (≈ 6.19 µM); MIC [5]: > 32 µg/mL; MIC [6]: > 256 µg/mL; MIC [7]: 2 µg/mL (≈ 6.19 µM)
C[C@@H](O)[C@@H](NC(=O)N1CCN(c2ccc(C#Cc3ccccn3)cc2)CC1)C(=O)NO	10 nM	> 100 µg/mL	6.25 µg/mL (≈ 14.8 µM)	
CCCCCCCCCCCCCC(=O)O[C@@H]1[C@@H](CC(=O)NO)CO[C@H](CO)[C@H]1O				Ki [1]: 650 nM
C[C@@H](O)[C@@H](NC(=O)N1CCC(c2ccc(C#Cc3ccccc3)cc2)CC1)C(=O)NO		12.5 µg/mL (≈ 29.7 µM)	0.8 µg/mL (≈ 1.9 µM)	
C[C@@H](O)[C@@H](NC(=O)N1CCN(c2ccc(C#Cc3ccc(CC#N)cc3)cc2)CC1)C(=O)NO	11 nM	6.25 µg/mL (≈ 13.5 µM)	0.8 µg/mL (≈ 1.73 µM)	
C[C@@H](O)[C@H](C(=O)NO)n1[nH]c2cc(C#Cc3ccccc3)ccc2c1=O	200 nM			
C[C@@H](O)[C@@H](NC(=O)N1CCN(c2ccc(C#Cc3ccncc3)cc2)CC1)C(=O)NO	4 nM	3.13 µg/mL (≈ 7.39 µM)	0.8 µg/mL (≈ 1.89 µM)	
C[C@@H](O)[C@@H](NC(=O)N1CCC(c2ccccc2)CC1)C(=O)NO	3940 nM		12.5 µg/mL (≈ 38.9 µM)	
C[C@@H](O)[C@@H](NC(=O)NCCc1ccc(C#Cc2ccccc2)cc1)C(=O)NO	1270 nM	> 100 µg/mL	50 µg/mL (≈ 131 µM)	
C[C@@H](O)[C@@H](NC(=O)N1CCN(c2ccc(C#Cc3cccs3)cc2)CC1)C(=O)NO	21 nM	25 µg/mL (≈ 58.3 µM)	1.56 µg/mL (≈ 3.64 µM)	
CC[C@H]1OC(=O)[C@H](C)[C@@H](O[C@H]2C[C@@](C)(OC)[C@@H](O)[C@H](C)O2)[C@H](C)[C@@H](O[C@@H]2O[C@H](C)C[C@H](N(C)C)[C@H]2O)[C@](C)(O)C[C@@H](C)CN(C)[C@H](C)[C@@H](O)[C@]1(C)O [AZITHROMYCIN]				MIC [4]: 4 µg/mL (≈ 5.34 µM); MIC [5]: 32 µg/mL (≈ 42.7 µM); MIC [6]: 32 µg/mL (≈ 42.7 µM)
C[C@@H](O)[C@H](C(=O)NO)N1Cc2cc(-c3ccc(-c4ccccc4)cc3)ccc2C1=O	50 nM			
CCCc1cc(C2=N[C@@H](C(=O)NO)CO2)cc(OC)c1OC				Ki [1]: 50 nM
C[C@@H](O)[C@H](C(=O)NO)N1Cc2cc(Br)ccc2C1=O	> 61000 nM			
C[C@@H](O)[C@H](C(=O)NO)N1Cc2cc(C#Cc3ccccc3)ccc2C1=O	130 nM			
C[C@@H](O)[C@@H](NC(=O)N1CCN(c2ccc(C#Cc3ccc(C(F)(F)F)cc3)cc2)CC1)C(=O)NO	10.4 nM	12.5 µg/mL (≈ 25.5 µM)	1.56 µg/mL (≈ 3.18 µM)	

Compound	IC50 [1]	MIC [2]	MIC [3]	other results
C[C@@H](O)[C@@H](NC(=O)N1CCC(c2cccc(C#Cc3ccccc3)c2)C1)C(=O)NO (some centres undefined)	146 nM	100 µg/mL (≈ 245 µM)	1.56 µg/mL (≈ 3.83 µM)	
CC(C)(O)[C@@H](NC(=O)N1CCN(c2ccc(-c3ccccc3)cc2)CC1)C(=O)NO	7 nM	3.13 µg/mL (≈ 7.59 µM)	0.8 µg/mL (≈ 1.94 µM)	
NC[C@@H](NC(=O)N1CCC(c2ccc(C#Cc3ccccc3)cc2)CC1)C(=O)NO	163 nM	12.5 µg/mL (≈ 30.8 µM)	6.25 µg/mL (≈ 15.4 µM)	
C[C@@H](O)[C@@H](NC(=O)N1CCN(c2ccc(C#Cc3ccccc3)cc2)CC1)C(=O)NO	2.4 nM	1.56 µg/mL (≈ 3.69 µM)	0.2 µg/mL (≈ 0.473 µM)	
C[C@@H](O)[C@@H](NC(=O)N1CCN(c2ccc(C#Cc3cccnc3)cc2)CC1)C(=O)NO	63 nM	100 µg/mL (≈ 236 µM)	12.5 µg/mL (≈ 29.5 µM)	
C[C@@H](O)[C@@H](NC(=O)N1CCN(c2ccc(C#Cc3ccc(N4CCNCC4)cc3)cc2)CC1)C(=O)NO	23.3 nM	6.25 µg/mL (≈ 12.3 µM)	0.4 µg/mL (≈ 0.79 µM)	
C[C@@H](O)[C@@H](NC(=O)N1CCN(c2ccc(C#Cc3ccc(Cl)cc3)cc2)CC1)C(=O)NO	5 nM	6.25 µg/mL (≈ 13.7 µM)	1.56 µg/mL (≈ 3.41 µM)	
C[C@@H](O)[C@@H](NC(=O)N1CCN(c2ccc(C#Cc3cnccn3)cc2)CC1)C(=O)NO	136 nM	> 100 µg/mL	6.25 µg/mL (≈ 14.7 µM)	
CC(C)(O)[C@@H](NC(=O)N1CCC(c2ccc(-c3ccccc3)cc2)CC1)C(=O)NO	2.5 nM	0.8 µg/mL (≈ 1.94 µM)	0.2 µg/mL (≈ 0.486 µM)	
C[C@@H](O)[C@@H](NC(=O)N1CCN(c2ccc(C#Cc3ccc(O)cc3)cc2)CC1)C(=O)NO	4 nM	1.56 µg/mL (≈ 3.56 µM)	0.1 µg/mL (≈ 0.228 µM)	
C[C@@H](O)[C@@H](NC(=O)N1CCN(c2ccc(-c3ccc(N4CCOCC4)cc3)cc2)CC1)C(=O)NO	16.3 nM	6.25 µg/mL (≈ 12.9 µM)	3.13 µg/mL (≈ 6.47 µM)	
C[C@@H](O)[C@@H](NC(=O)N1CCN(c2ccc(C#Cc3ccc(N4CCOCC4)cc3)cc2)CC1)C(=O)NO	3 nM	25 µg/mL (≈ 49.3 µM)	0.1 µg/mL (≈ 0.197 µM)	
C[C@@H](O)[C@@H](NC(=O)N1CCC(c2ccc(C#Cc3ccccc3)cc2)C1)C(=O)NO (some centres undefined)	36 nM	100 µg/mL (≈ 245 µM)	12.5 µg/mL (≈ 30.7 µM)	
C[C@@H](O)[C@H](C(=O)NO)N1Cc2cc(C#Cc3cccc(-c4ccccc4)c3)ccc2C1=O	971 nM			
C[C@@H](O)[C@@H](NC(=O)N1CCC(C#Cc2ccccc2)CC1)C(=O)NO	207 nM	25 µg/mL (≈ 72.4 µM)	3.13 µg/mL (≈ 9.06 µM)	
C[C@@H](O)[C@H](C(=O)NO)N1Cc2ccc(C#Cc3ccccc3)cc2C1=O	34000 nM			
C[C@@H](O)[C@H](C(=O)NO)N1Cc2cc(-c3ccc(C#Cc4ccccc4)cc3)ccc2C1=O	29 nM			
O=C(O)c1cn(C2CC2)c2cc(N3CCNCC3)c(F)cc2c1=O [CIPROFLOXACIN]				MIC [8]: 1 µg/mL (≈ 3.02 µM); MIC [9]: 0.016 µg/mL (≈ 0.0483 µM); MIC [4]: 0.012 µg/mL (≈ 0.0362 µM); MIC [5]: > 32 µg/mL; MIC [6]: > 8 µg/mL
CC1(C)S[C@@H]2[C@H](NC(=O)[C@H](N)c3ccccc3)C(=O)N2[C@H]1C(=O)O [AMPICILLIN]				MIC [8]: > 32 µg/mL; MIC [10]: > 32 µg/mL; MIC [9]: > 32 µg/mL; MIC [11]: > 32 µg/mL; MIC [4]: 4 µg/mL (≈ 11.4 µM); MIC [5]: > 8 µg/mL; MIC [12]: > 32 µg/mL; MIC [6]: > 256 µg/mL; MIC [7]: 4 µg/mL (≈ 11.4 µM)
C[C@@H](O)[C@@H](NC(=O)N1CCCC(c2ccc(C#Cc3ccccc3)cc2)C1)C(=O)NO (some centres undefined)	387 nM	> 100 µg/mL	25 µg/mL (≈ 59.3 µM)	
C[C@@H](O)[C@@H](NC(=O)N1CCN(c2ccc(C#Cc3ccc(N)cc3)cc2)CC1)C(=O)NO	26 nM	3.13 µg/mL (≈ 7.15 µM)	1.56 µg/mL (≈ 3.57 µM)	
C[C@@H](O)[C@@H](NC(=O)N1CCN(c2ccc(C#Cc3ccc(F)cc3)cc2)CC1)C(=O)NO	7 nM	3.13 µg/mL (≈ 7.11 µM)	0.8 µg/mL (≈ 1.82 µM)	
CN(C)[C@@H]1C(O)=C(C(N)=O)C(=O)[C@@]2(O)C(O)=C3C(=O)c4c(O)cccc4[C@@](C)(O)[C@H]3C[C@@H]12 [TETRACYCLINE]				MIC [4]: 1 µg/mL (≈ 2.25 µM); MIC [5]: > 2 µg/mL; MIC [6]: 16 µg/mL (≈ 36 µM); MIC [7]: 1 µg/mL (≈ 2.25 µM)
